Columns and labels:
CIRI mice = assay: RT-qPCR and ELISA of inflammatory factors in the brain of CIRI mice; assay type: in vivo, C57BL/6 mice; details: TJ-5 15 mg/kg i.v. after 1 h ischemia
Procedure: Total mRNA was extracted from the brain cortex using TRIzol reagent and reverse-transcribed into cDNA using the PrimeScript™ RT reagent kit (Takara, Japan), following the manufacturer’s instructions. RT-qPCR was performed using SYBR Green Real-time PCR Master Mix (Takara, Japan) with the Step One System (Life Technologies). The results were expressed as fold change from the untreated control and analyzed using the 2^−ΔΔCt method. The primers were as follows (5′–3′): MyD88 forward: TTTATCTGCTACTGCCCCAACG, reverse: GCGGCGACACCTTTTCTCA; TLR4 forward: ATGCTGCAACTGATGTTCCTTC, reverse: GATGTTAGACCTTTCTTCCTCCC; GAPDH forward: TGTTCCTACCCCCAATGTGTCC, reverse: GGAGTTGCTGTTGAAGTCGCAG; TNF-α forward: ATGGCCTCCCTCTCATCAGT, reverse: TGGTTTGCTACGACGTGGG; IL-6 forward: AGTGGCTAAGGACCAAGAC, reverse: ATAACGCACTAGGTTTGCCGA; iNOS forward: ATTCACAGCTCATCCGGTACG, reverse: GGATCTTGACCATCAGCTTGC; IL-1β forward: GCACTACAGGCTCCGAGATGAA, reverse: GTCGTTGCTTGGTTCTCCTTGT.
Enzyme-linked immunosorbent assay (ELISA) kits were used to detect the levels of TNF-α, IL-1β, and IL-6 in the brain. Brain tissue was homogenized in 1 ml of phosphate-buffered saline using a tissue homogenizer. […] BV-2 cells were incubated with different treatments and the supernatants were collected and measured.

[1] = test system: LPS-stimulated BV-2 cells; assay: LPS-stimulated BV-2 cell model: morphology and TNF-α/IL-6 ELISA; assay type: cell-based
Procedure: BV-2 microglial and SH-SY5Y cells were cultured as previously described ([Zhao et al., 2020]). A lipopolysaccharide (LPS)-stimulated BV-2 cell model was established to mimic severe neuroinflammation induced by multiple inflammatory mediators after reperfusion ([Li et al., 2021]). BV-2 cells were pretreated with different concentrations of TJ-5 for 2 h before LPS (1 μg/ml) stimulation (#L2880, Sigma, United States). Twenty-4 hours later, BV-2 cells and the culture supernatants were harvested for subsequent experiments. In addition, ST2825, a recognized MyD88 inhibitor, was used as positive control group.
(§1) Enzyme-linked immunosorbent assay (ELISA) kits were used to detect the levels of TNF-α, IL-1β, and IL-6 in the brain. Brain tissue was homogenized in 1 ml of phosphate-buffered saline using a tissue homogenizer. Then, the homogenates were centrifuged at 14,000 g for 10 min at 4 °C. The supernatant was immediately transferred for measurement following the manufacturer’s instructions. BV-2 cells were incubated with different treatments and the supernatants were collected and measured.

[2] = test system: OGD/R-stimulated BV-2 cells; assay: OGD/R-stimulated BV-2 cells: TNF-α/IL-6 ELISA; assay type: cell-based
Procedure: as §1

SH-SY5Y cells = assay: CCK-8 cell viability assay, SH-SY5Y; assay type: cell-based
Procedure: BV-2 and SH-SY5Y cells were seeded in a 96-well plate at a density of 1 × 10^4 cells/well. Twenty-4 hours later, different concentrations of TJ-5 (0, 1, 5, 10, 20, and 30 μM) were added and co-cultured with cells for 24 h. Cell Counting Kit-8 (CCK8, Sigma, Shanghai, China) was used to measure cell viability. Experiments were conducted according to the manufacturer’s instructions. After incubation at 37°C for 2 h, absorbance was measured at 450 nm using a microplate reader (Synergy 2, BioTek Instruments, United States).

O=C(CCN1CCN(Cc2ccccc2)CC1)Nc1nc(-c2ccccc2)cs1 [TJ-5]
iNOS (with TNF-α, IL-6, IL-1β) mRNA expression levels in the brain (CIRI mice; RT-qPCR): downregulated | expression of TNF-α, IL-1β, and IL-6 in the brain (mRNA and protein) (CIRI mice; RT-qPCR and ELISA): reduced | levels of TNF-α and IL-6 in supernatants ([1]; LPS-stimulated BV-2 cells, pretreatment 2 h, LPS 24 h, ELISA): markedly reduced | activation (morphology) of LPS-stimulated BV-2 cells ([1]; pretreatment 2 h before LPS 1 μg/ml, 24 h): inhibited | levels of TNF-α and IL-6 in supernatants [2]: markedly reduced | neurotoxicity (SH-SY5Y cells; SH-SY5Y cells): no neurotoxicity | viability of SH-SY5Y cells (SH-SY5Y cells; concentrations below 20 μM, 24 h, CCK-8): did not affect the viability
